From patent publication US20230203098A1, “HUMAN TRANSFERRIN RECEPTOR BINDING PEPTIDE” (priority 2020, published 2023)
pKd: −log10 of the molar value. Like-named read-outs stand apart in the source and are kept apart here. One block for each compound: values may come before it. Where a SMILES comes first, the peptide text is derived from it. Bridges are numbered along the chain shown (N, C = ends). [ ]: non-standard residue; d: D form. The star is where a group is joined. X2 = O=C(O)c1cc(C(=O)*)ccc1-c1c2ccc(=O)cc-2oc2cc(O)ccc12; PEG12 = NCCOCCOCCOCCOCCOCCOCCOCCOCCOCCOCCOCCOCCC(=O)O; NMePhe(3-Cl) = CN[C@@H](Cc1cccc(Cl)c1)C(=O)O; NMeW = CN[C@@H](Cc1c[nH]c2ccccc12)C(=O)O; Phe(4-Cl) = N[C@@H](Cc1ccc(Cl)cc1)C(=O)O; Lys(N3) = [N-]=[N+]=NCCCC[C@H](N)C(=O)O; NMeY = CN[C@@H](Cc1ccc(O)cc1)C(=O)O; NMeF = CN[C@@H](Cc1ccccc1)C(=O)O; PEG4 = NCCOCCOCCOCCOCCC(=O)O; Abu = CC[C@H](N)C(=O)O; Sar = CNCC(=O)O

Molecular target: transferrin receptor (hTfR) (Homo sapiens, UniProt P02786)
Assay: Intermolecular interaction evaluation test between transferrin receptor (hTfR) and peptide by surface plasmon resonance (SPR)
Type: binding
Method in brief: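 Receptor was Ni-captured and EDC/NHS-fixed on an NTA chip; running buffer HEPES pH 8.0 with NaCl, Tween 20, BSA and 1.0% DMSO.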

[1] = binding to hTfR by SPR, Table 2 peptides, read-out: KD value (SPR) class
[2] = SPR, hTfR No. 894 variants with PEG12c linker (Table 2), read-out: KD

transferrin receptor (hTfR), sequence (P02786 whole entry): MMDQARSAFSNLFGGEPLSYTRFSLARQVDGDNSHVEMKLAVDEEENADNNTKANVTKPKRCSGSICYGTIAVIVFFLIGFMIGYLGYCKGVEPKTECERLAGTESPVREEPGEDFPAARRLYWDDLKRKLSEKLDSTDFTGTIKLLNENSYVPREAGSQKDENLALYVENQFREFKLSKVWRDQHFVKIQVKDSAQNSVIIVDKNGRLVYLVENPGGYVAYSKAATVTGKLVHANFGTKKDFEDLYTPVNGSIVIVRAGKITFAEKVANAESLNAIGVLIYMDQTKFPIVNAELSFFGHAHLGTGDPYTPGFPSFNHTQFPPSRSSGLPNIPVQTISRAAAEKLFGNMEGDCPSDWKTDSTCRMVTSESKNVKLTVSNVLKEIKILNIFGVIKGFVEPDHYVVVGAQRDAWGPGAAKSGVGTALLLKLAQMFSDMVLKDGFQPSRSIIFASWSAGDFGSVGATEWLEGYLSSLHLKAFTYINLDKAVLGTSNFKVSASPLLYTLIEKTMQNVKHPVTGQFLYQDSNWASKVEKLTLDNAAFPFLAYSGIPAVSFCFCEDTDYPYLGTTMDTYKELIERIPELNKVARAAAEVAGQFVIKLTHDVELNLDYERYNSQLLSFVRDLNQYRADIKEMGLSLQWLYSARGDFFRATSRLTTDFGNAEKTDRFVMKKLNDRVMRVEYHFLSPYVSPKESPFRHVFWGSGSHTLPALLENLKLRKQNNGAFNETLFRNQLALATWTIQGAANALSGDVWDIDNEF

pKd (surface plasmon resonance, hTfR, read-out: KD value for hTfR by SPR (class symbol)): > 9.00
SMILES: CC[C@H](C)[C@@H]1NC(=O)[C@H](Cc2ccc(OC)cc2)NC(=O)[C@H](Cc2ccc(O)cc2)NC(=O)[C@H](CC(N)=O)NC(=O)[C@H](Cc2c[nH]c3ccccc23)N(C)C(=O)[C@H](C(C)C)NC(=O)[C@H](Cc2cccc(Cl)c2)N(C)C(=O)[C@H](C(C)C)NC(=O)[C@H](C)NC(=O)CSC[C@@H](C(N)=O)NC(=O)[C@H](Cc2ccc(O)cc2)N(C)C(=O)[C@H](CCC(=O)NCCOCCOCCOCCOCCOCCOCCOCCOC)NC(=O)[C@@H](CCCNC(=N)N)NC(=O)[C@H](CCCNC(=N)N)NC(=O)[C@H]([C@@H](C)CC)NC1=O [compound 389]

pKd [1]: 6.00 to 7.00
SMILES: CC[C@H](C)[C@@H]1NC(=O)[C@H](Cc2ccc(O)cc2)NC(=O)[C@H](Cc2ccc(Cl)cc2)NC(=O)[C@H](CC(N)=O)NC(=O)[C@H](Cc2c[nH]c3ccccc23)NC(=O)[C@H](C(C)C)NC(=O)[C@H](Cc2ccccc2)N(C)C(=O)[C@H](C(C)C)NC(=O)[C@H](C)NC(=O)CSC[C@@H](C(=O)NCC(=O)N[C@@H](CCCCN=[N+]=[N-])C(N)=O)NC(=O)[C@H](Cc2ccc(O)cc2)N(C)C(=O)[C@H](Cc2ccc(O)cc2)NC(=O)[C@H](CCCNC(=N)N)NC(=O)[C@H](CCCNC(=N)N)NC(=O)[C@H]([C@@H](C)CC)NC1=O [compound 277] ({CH2CO}-AV[NMeF]VWN[Phe(4-Cl)]YIIRRY[NMeY]CG[Lys(N3)]-NH2; thioether N-15)

pKd (surface plasmon resonance, peptide vs hTfR, read-out: KD value, hTfR binding by SPR (class symbol)): 7.00 to 9.00
SMILES: CC[C@H](C)[C@@H]1NC(=O)[C@H](Cc2ccc(OC)cc2)NC(=O)[C@H](Cc2ccc(O)cc2)NC(=O)[C@H](CC(N)=O)NC(=O)[C@H](Cc2c[nH]c3ccccc23)N(C)C(=O)[C@H](C(C)C)NC(=O)[C@H](Cc2cccc(Cl)c2)N(C)C(=O)[C@H](C(C)C)NC(=O)[C@H](C)NC(=O)CSC[C@@H](C(=O)NCC(=O)NCC(=O)NCC(=O)NCC(=O)N[C@@H](CO)C(=O)N[C@@H](CO)C(=O)N[C@@H](CS)C(N)=O)NC(=O)[C@H](Cc2ccc(O)cc2)N(C)C(=O)[C@H](Cc2ccccc2)NC(=O)[C@@H](CCCNC(=N)N)NC(=O)[C@H](CCCNC(=N)N)NC(=O)[C@H](CCCCN)NC1=O [compound 344]

pKd (SPR, hTfR, class symbols A-D, read-out: KD): 7.00 to 9.00
SMILES: CC[C@H](C)[C@@H]1NC(=O)[C@H](Cc2ccc(OC)cc2)NC(=O)[C@H](Cc2ccc(O)cc2)NC(=O)[C@H](CC(N)=O)NC(=O)[C@H](Cc2c[nH]c3ccccc23)N(C)C(=O)[C@H](C(C)C)NC(=O)[C@H](Cc2cccc(Cl)c2)N(C)C(=O)[C@H](C(C)C)NC(=O)[C@H](C)NC(=O)CSC[C@@H](C(N)=O)NC(=O)[C@H](Cc2ccc(O)cc2)N(C)C(=O)[C@H](Cc2cccnc2)NC(=O)[C@@H](CCCNC(=N)N)NC(=O)[C@H](CCCNC(=N)N)NC(=O)[C@H]([C@@H](C)CC)NC1=O [compound 460]

pKd [1]: 7.00 to 9.00
SMILES: CC[C@H](C)[C@@H]1NC(=O)[C@H](Cc2ccc(O)cc2)NC(=O)[C@H](Cc2ccc(O)cc2)NC(=O)[C@H](CC(N)=O)NC(=O)[C@H](Cc2c[nH]c3ccccc23)NC(=O)[C@H](C(C)C)NC(=O)[C@H](Cc2ccccc2)NC(=O)[C@H](C(C)C)NC(=O)[C@H](C)NC(=O)CSC[C@@H](C(N)=O)NC(=O)[C@H](Cc2ccc(O)cc2)N(C)C(=O)[C@H](Cc2ccc(O)cc2)NC(=O)[C@H](CCCNC(=N)N)NC(=O)[C@H](CCC(=O)O)NC(=O)[C@H]([C@@H](C)CC)NC1=O [compound 251]

SMILES: CC[C@H](C)[C@@H]1NC(=O)[C@H](Cc2ccc(O)cc2)NC(=O)[C@H](Cc2ccc(O)cc2)NC(=O)[C@H](CC(N)=O)NC(=O)[C@H](Cc2c[nH]c3ccccc23)N(C)C(=O)[C@H](C(C)C)NC(=O)[C@H](Cc2ccccc2)N(C)C(=O)[C@H](C(C)C)NC(=O)[C@H](C)NC(=O)CSC[C@@H](C(=O)NCCOCCOCCOCCOCCC(=O)N[C@@H](CCCCNC(=O)C2CCC(CN3C(=O)C=CC3=O)CC2)C(N)=O)NC(=O)[C@H](Cc2ccc(O)cc2)N(C)C(=O)[C@H](Cc2ccc(O)cc2)NC(=O)[C@H](CCCNC(=N)N)NC(=O)[C@H](CCCNC(=N)N)NC(=O)[C@H]([C@@H](C)CC)NC1=O (some centres unmarked) [compound 184]
pKd (hTfR binding by SPR, hTfR No. 894 variant peptides, linker-added peptides and payload conjugates (Table 2), read-out: KD value obtained from the SPR measurement): 7.00 to 9.00

pKd (SPR, peptides, linker-added peptides and FITC conjugates, Patent ID 203-230, read-out: KD): 7.00 to 9.00
SMILES: CC[C@H](C)[C@@H]1NC(=O)[C@H](Cc2ccc(O)cc2)NC(=O)[C@H](Cc2ccc(O)cc2)NC(=O)[C@H](CC(N)=O)NC(=O)[C@H](Cc2c[nH]c3ccccc23)NC(=O)[C@H](C(C)C)NC(=O)[C@H](Cc2ccccc2)NC(=O)[C@H](C(C)C)NC(=O)[C@H](C)NC(=O)CSC[C@@H](C(=O)NCCOCCOCCOCCOCCOCCOCCOCCOCCOCCOCCOCCOCCC(=O)N[C@@H](CCCCNC(=O)c2ccc(-c3c4ccc(=O)cc-4oc4cc(O)ccc34)c(C(=O)O)c2)C(N)=O)NC(=O)[C@H](CC(N)=O)NC(=O)[C@H](CCCNC(=N)N)NC(=O)[C@@H]2CCCN2C(=O)[C@H](C(C)C)NC1=O [compound 212] ({CH2CO}-AVFVWNYYIVPRNC[PEG12]K(X2)-NH2; thioether N-14)

pKd (SPR, linker and payload (FITC, VivoTag) conjugates, read-out: KD): 7.00 to 9.00
SMILES: CC[C@H](C)[C@@H]1NC(=O)[C@H](Cc2ccc(O)cc2)NC(=O)[C@H](Cc2ccc(O)cc2)NC(=O)[C@H](CC(N)=O)NC(=O)[C@H](Cc2c[nH]c3ccccc23)NC(=O)[C@H](C(C)C)NC(=O)[C@H](Cc2ccccc2)NC(=O)[C@H](C(C)C)NC(=O)[C@H](C)NC(=O)CSC[C@@H](C(=O)NCCOCCOCCOCCOCCC(=O)N[C@@H](CNC(=O)c2ccc(-c3c4ccc(=O)cc-4oc4cc(O)ccc34)c(C(=O)O)c2)C(N)=O)NC(=O)[C@H](Cc2ccc(O)cc2)N(C)C(=O)[C@H](Cc2ccc(O)cc2)NC(=O)[C@H](CCCNC(=N)N)NC(=O)[C@H](CCCNC(=N)N)NC(=O)[C@H]([C@@H](C)CC)NC1=O [compound 159]

pKd [1]: 7.00 to 9.00
SMILES: CC[C@H](C)[C@@H]1NC(=O)[C@H](Cc2ccc(OC)cc2)NC(=O)[C@H](Cc2ccc(O)cc2)NC(=O)[C@H](CC(N)=O)NC(=O)[C@H](Cc2c[nH]c3ccccc23)N(C)C(=O)[C@H](C(C)C)NC(=O)[C@H](Cc2cccc(Cl)c2)N(C)C(=O)[C@H](CCC(=O)O)NC(=O)[C@H](C)NC(=O)CSC[C@@H](C(=O)NCC(=O)NCC(=O)NCC(=O)NCC(=O)N[C@@H](CO)C(=O)N[C@@H](CO)C(=O)N[C@@H](CS)C(N)=O)NC(=O)[C@H](Cc2ccc(O)cc2)N(C)C(=O)[C@H](Cc2ccccc2)NC(=O)[C@H](CCC(=O)O)NC(=O)[C@H](CCCNC(=N)N)NC(=O)[C@H]([C@@H](C)CC)NC1=O [compound 231]

pKd [1]: > 9.00
SMILES: CC[C@H](C)[C@@H]1NC(=O)[C@H](Cc2ccc(O)cc2)NC(=O)[C@H](Cc2ccc(O)cc2)NC(=O)[C@H](CC(N)=O)NC(=O)[C@H](Cc2c[nH]c3ccccc23)NC(=O)[C@H](C(C)C)NC(=O)[C@H](Cc2ccccc2)NC(=O)[C@H](C(C)C)NC(=O)[C@H](C)NC(=O)CSC[C@@H](C(N)=O)NC(=O)[C@H](Cc2ccc(O)cc2)N(C)C(=O)[C@H](Cc2ccc(O)cc2)NC(=O)[C@H](CCCNC(=N)N)NC(=O)[C@H](CCCNC(=N)N)NC(=O)[C@H](CCCCN)NC1=O [compound 249] ({CH2CO}-AVFVWNYYIKRRY[NMeY]C-NH2; thioether N-15)

pKd [2]: 7.00 to 9.00
SMILES: CC[C@H](C)[C@@H]1NC(=O)[C@H](Cc2ccc(O)cc2)NC(=O)[C@H](Cc2ccc(O)cc2)NC(=O)[C@H](CC(N)=O)NC(=O)[C@H](CCc2ccccc2)NC(=O)[C@H](C(C)C)NC(=O)[C@H](Cc2ccccc2)N(C)C(=O)[C@H](C(C)C)NC(=O)[C@H](C)NC(=O)CSC[C@@H](C(=O)NCCOCCOCCOCCOCCOCCOCCOCCOCCOCCOCCOCCOCCC(N)=O)NC(=O)[C@H](Cc2ccc(O)cc2)N(C)C(=O)[C@H](Cc2ccc(O)cc2)NC(=O)[C@H](CCCNC(=N)N)NC(=O)[C@H](CCCNC(=N)N)NC(=O)[C@H]([C@@H](C)CC)NC1=O [compound 128]

SMILES: CC[C@H](C)[C@@H]1NC(=O)[C@H](Cc2ccc(OC)cc2)NC(=O)[C@H](Cc2ccc(O)cc2)NC(=O)[C@H](CC(N)=O)NC(=O)[C@H](Cc2c[nH]c3ccccc23)N(C)C(=O)[C@H](C(C)C)NC(=O)[C@H](Cc2cccc(Cl)c2)N(C)C(=O)[C@H](C(C)C)NC(=O)[C@H](C)NC(=O)CSC[C@@H](C(=O)N(C)CC(=O)N(C)CC(=O)N(C)CC(N)=O)NC(=O)[C@H](Cc2ccc(O)cc2)N(C)C(=O)[C@H](Cc2ccccc2)NC(=O)[C@@H](CCCNC(=N)N)NC(=O)[C@H](CCCNC(=N)N)NC(=O)[C@H]([C@@H](C)CC)NC1=O [compound 399] ({CH2CO}-AV[NMePhe(3-Cl)]V[NMeW]NYY(Me)IIR[dR]F[NMeY]C[Sar][Sar][Sar]-NH2; thioether N-15)
pKd: 7.00 to 9.00

pKd [1]: 7.00 to 9.00
SMILES: CC[C@@H]1NC(=O)[C@H](C)NC(=O)CSC[C@@H](C(=O)NCCOCCOCCOCCOCCC(N)=O)NC(=O)[C@H](Cc2ccc(O)cc2)N(C)C(=O)[C@H](Cc2ccccc2)NC(=O)[C@@H](CCCNC(=N)N)NC(=O)[C@H](CCCNC(=N)N)NC(=O)[C@H]([C@@H](C)CC)NC(=O)[C@H]([C@@H](C)CC)NC(=O)[C@H](Cc2ccc(OC)cc2)NC(=O)[C@H](Cc2ccc(O)cc2)NC(=O)[C@H](CC(N)=O)NC(=O)[C@H](Cc2c[nH]c3ccccc23)N(C)C(=O)[C@H](C(C)C)NC(=O)[C@H](Cc2cccc(Cl)c2)N(C)C1=O [compound 243] ({CH2CO}-A[Abu][NMePhe(3-Cl)]V[NMeW]NYY(Me)IIR[dR]F[NMeY]C[PEG4]-NH2; thioether N-15)

pKd [2]: 6.00 to 7.00
SMILES: CC[C@H](C)[C@@H]1NC(=O)[C@H](Cc2ccc(O)cc2)NC(=O)[C@H](Cc2ccc(O)cc2)NC(=O)[C@H](CC(N)=O)NC(=O)[C@H](Cc2c[nH]c3ccccc23)NC(=O)[C@H](C(C)C)NC(=O)[C@H](Cc2ccccc2)N(C)C(=O)[C@H](C(C)C)NC(=O)[C@H](C)NC(=O)CSC[C@@H](C(=O)NCCOCCOCCOCCOCCOCCOCCOCCOCCOCCOCCOCCOCCC(N)=O)NC(=O)[C@H](CCC(=O)O)NC(=O)[C@H](Cc2ccc(O)cc2)NC(=O)[C@H](CCCNC(=N)N)NC(=O)[C@H](CCCNC(=N)N)NC(=O)[C@H]([C@@H](C)CC)NC1=O [compound 124]
